The record followed here is patent US7074789B2, “Kinase inhibitors” (Amgen Inc., priority 1999, dated 2006).

Holding throughout (format): biochemical
In one test the target is T1, Zap-70 (Homo sapiens, UniProt P43403).
T1 construct: Kinases are expressed as either kinase domains or full length constructs; made in house
T1 sequence (P43403 1-619): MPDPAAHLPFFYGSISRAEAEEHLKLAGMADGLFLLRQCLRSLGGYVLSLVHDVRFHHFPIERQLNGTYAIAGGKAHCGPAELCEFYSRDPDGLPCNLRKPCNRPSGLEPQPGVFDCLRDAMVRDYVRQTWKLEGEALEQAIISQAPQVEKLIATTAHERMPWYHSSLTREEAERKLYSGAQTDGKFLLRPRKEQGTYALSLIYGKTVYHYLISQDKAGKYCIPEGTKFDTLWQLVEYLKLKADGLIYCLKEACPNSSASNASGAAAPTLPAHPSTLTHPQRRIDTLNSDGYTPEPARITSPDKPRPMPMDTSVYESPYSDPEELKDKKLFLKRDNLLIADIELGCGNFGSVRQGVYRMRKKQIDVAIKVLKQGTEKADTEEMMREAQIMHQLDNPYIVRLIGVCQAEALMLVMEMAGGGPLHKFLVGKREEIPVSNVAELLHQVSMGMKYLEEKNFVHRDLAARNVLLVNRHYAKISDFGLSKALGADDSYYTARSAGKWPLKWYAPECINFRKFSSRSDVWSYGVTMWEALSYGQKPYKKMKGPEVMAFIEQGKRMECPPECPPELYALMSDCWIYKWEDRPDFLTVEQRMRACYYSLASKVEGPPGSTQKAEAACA
Nature of the test: Kinase inhibition assay (33P transfer), Zap-70. To be noted: read-out: Zap-1. In a few lines:
(§1)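 Liquid scintillation counting of 33P on plate-bound synthetic substrates gives kinase activity. Plates are washed in 0.5% phosphoric acid first; kinases are tagged recombinant proteins from E. coli or baculovirus-infected High Five cells.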

A further test concerns the target T2, Itk (Homo sapiens, UniProt Q08881).
T2 construct: Kinases are expressed as either kinase domains or full length constructs; made in house
T2 sequence (Q08881 1-620): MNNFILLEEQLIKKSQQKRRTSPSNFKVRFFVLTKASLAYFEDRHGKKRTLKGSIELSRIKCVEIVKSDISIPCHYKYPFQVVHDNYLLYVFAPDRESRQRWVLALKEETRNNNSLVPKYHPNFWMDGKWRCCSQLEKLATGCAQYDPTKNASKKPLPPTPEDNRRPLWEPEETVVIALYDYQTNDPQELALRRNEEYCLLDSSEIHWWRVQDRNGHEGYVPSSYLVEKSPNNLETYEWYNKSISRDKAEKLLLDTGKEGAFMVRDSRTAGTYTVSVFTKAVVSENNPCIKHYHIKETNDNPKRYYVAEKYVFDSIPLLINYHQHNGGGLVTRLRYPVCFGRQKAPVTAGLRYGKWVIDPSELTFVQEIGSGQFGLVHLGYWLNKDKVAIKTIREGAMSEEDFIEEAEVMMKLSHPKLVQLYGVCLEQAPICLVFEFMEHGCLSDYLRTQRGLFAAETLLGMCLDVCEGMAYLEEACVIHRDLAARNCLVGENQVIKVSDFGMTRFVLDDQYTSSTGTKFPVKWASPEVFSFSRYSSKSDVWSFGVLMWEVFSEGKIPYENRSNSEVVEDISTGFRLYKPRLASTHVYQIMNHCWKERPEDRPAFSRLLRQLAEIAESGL
Nature of the test: Kinase inhibition assay (33P transfer), Itk. Conditions: read-out: Itk-1. In a few lines:
(§2)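 GST/His-fusion kinases, E. coli or High Five expressed, affinity purified; 33P-ATP, plate-coated poly(Glu,Tyr) 4:1 or poly(Arg,Ser) 3:1; 0.5% H3PO4 wash, scintillant, LSC.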

A further test deals with T3, IGFR-1 (Homo sapiens, UniProt P08069).
T3 construct: Kinases are expressed as either kinase domains or full length constructs; made in house
Nature of the test: Kinase inhibition assay, IGFR-1 (Table 2). Conditions: Table 2, kinase inhibition class.

The target of the next test is T4, ErbB2 (Homo sapiens, UniProt P04626).
T4 construct: Kinases are expressed as either kinase domains or full length constructs; made in house
T4 sequence (P04626 23-1255, species assumed): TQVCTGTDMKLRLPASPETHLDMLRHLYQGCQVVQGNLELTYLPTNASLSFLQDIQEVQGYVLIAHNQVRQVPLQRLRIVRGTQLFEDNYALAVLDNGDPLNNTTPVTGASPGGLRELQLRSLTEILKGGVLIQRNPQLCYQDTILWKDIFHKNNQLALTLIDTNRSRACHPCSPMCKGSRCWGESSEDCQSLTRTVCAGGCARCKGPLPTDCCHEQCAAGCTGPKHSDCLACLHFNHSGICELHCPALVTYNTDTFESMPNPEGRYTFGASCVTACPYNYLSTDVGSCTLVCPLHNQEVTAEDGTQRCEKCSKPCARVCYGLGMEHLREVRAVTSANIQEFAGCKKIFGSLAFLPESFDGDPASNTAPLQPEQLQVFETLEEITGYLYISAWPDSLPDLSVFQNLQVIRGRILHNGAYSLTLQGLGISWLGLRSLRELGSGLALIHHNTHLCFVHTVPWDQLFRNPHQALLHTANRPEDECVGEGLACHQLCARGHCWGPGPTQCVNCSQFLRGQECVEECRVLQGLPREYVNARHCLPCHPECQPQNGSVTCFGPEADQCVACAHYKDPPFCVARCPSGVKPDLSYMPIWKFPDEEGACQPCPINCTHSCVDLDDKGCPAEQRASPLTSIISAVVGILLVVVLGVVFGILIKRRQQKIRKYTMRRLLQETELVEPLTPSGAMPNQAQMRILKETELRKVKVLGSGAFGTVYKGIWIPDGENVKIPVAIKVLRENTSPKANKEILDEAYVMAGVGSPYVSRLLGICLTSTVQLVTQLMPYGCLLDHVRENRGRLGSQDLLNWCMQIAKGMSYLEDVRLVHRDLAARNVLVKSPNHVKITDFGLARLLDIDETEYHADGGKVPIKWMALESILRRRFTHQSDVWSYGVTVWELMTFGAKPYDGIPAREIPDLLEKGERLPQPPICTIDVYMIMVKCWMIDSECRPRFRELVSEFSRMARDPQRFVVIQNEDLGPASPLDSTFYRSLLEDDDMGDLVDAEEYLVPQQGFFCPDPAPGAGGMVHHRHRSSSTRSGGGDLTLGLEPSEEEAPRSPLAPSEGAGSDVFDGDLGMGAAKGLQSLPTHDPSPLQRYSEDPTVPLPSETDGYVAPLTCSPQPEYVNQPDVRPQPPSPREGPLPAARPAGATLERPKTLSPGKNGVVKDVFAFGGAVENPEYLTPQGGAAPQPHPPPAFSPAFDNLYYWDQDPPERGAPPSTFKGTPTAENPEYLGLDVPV
Description: Kinase inhibition assay (33P transfer), ErbB2. To be noted: read-out: ErbB2-2. In a few lines:
as §2

Another test deals with T5, Lck (Homo sapiens, UniProt P06239).
T5 construct: Kinases are expressed as either kinase domains or full length constructs; made in house
Description: Kinase inhibition assay (33P transfer), Lck. Conditions: read-out: Lck-1. In a few lines:
as §1

The target in another test is T6, PDGFRB (Homo sapiens, UniProt P09619).
T6 construct: Kinases are expressed as either kinase domains or full length constructs; made in house
Description: Kinase inhibition assay (33P transfer), PDGFRB. Conditions: read-out: PDGFRB-1.

The target in another test is T7, Kdr (Homo sapiens, UniProt P35968).
T7 construct: Kinases are expressed as either kinase domains or full length constructs; made in house
T7 sequence (P35968 20-1356, species assumed): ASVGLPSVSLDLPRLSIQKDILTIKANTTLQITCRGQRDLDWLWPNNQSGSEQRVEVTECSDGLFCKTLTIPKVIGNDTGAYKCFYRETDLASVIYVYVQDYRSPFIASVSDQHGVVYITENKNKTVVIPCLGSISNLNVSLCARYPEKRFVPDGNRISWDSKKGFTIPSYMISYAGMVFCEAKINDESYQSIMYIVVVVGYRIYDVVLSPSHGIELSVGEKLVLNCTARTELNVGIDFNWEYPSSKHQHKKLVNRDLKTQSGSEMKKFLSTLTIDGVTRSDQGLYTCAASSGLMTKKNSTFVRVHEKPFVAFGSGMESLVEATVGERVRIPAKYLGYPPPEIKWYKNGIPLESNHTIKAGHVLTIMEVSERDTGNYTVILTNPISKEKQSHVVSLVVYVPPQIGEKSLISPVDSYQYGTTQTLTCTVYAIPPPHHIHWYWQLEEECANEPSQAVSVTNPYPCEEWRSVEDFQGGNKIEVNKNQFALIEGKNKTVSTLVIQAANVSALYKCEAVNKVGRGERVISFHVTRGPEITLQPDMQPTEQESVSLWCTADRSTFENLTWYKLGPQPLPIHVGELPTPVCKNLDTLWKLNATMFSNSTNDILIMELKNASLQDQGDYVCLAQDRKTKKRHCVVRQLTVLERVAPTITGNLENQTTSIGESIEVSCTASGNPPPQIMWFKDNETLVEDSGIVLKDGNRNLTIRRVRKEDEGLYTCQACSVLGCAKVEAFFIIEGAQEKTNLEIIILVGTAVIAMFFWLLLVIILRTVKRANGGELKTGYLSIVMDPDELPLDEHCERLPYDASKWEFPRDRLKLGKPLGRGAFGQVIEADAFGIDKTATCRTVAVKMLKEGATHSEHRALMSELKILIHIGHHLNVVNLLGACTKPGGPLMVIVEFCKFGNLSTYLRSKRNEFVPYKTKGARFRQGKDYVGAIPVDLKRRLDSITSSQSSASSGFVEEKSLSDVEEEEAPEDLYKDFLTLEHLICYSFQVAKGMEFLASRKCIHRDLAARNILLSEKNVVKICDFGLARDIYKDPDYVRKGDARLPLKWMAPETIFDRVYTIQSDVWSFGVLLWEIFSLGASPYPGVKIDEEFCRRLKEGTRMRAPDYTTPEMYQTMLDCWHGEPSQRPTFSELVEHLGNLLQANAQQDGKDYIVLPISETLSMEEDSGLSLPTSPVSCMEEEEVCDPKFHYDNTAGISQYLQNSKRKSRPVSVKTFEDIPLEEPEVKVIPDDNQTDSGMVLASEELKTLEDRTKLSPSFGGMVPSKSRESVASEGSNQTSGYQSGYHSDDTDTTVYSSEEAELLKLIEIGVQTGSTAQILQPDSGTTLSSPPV
Description: Kinase inhibition assay (33P transfer), Kdr. Conditions: read-out: KDR-1. The method in brief:
as §1

The target of another test is T8, AKT (Homo sapiens, UniProt Q9Y243).
T8 construct: Kinases are expressed as either kinase domains or full length constructs; made in house
Nature of the test: Kinase inhibition assay (33P transfer), AKT. To be noted: Table 2, kinase inhibition class; read-out: AKT3-1. In a few lines:
as §1

The next test deals with T9, EGFR (Homo sapiens, UniProt P00533).
T9 construct: Kinases are expressed as either kinase domains or full length constructs; made in house
T9 sequence (P00533 25-1210, species assumed): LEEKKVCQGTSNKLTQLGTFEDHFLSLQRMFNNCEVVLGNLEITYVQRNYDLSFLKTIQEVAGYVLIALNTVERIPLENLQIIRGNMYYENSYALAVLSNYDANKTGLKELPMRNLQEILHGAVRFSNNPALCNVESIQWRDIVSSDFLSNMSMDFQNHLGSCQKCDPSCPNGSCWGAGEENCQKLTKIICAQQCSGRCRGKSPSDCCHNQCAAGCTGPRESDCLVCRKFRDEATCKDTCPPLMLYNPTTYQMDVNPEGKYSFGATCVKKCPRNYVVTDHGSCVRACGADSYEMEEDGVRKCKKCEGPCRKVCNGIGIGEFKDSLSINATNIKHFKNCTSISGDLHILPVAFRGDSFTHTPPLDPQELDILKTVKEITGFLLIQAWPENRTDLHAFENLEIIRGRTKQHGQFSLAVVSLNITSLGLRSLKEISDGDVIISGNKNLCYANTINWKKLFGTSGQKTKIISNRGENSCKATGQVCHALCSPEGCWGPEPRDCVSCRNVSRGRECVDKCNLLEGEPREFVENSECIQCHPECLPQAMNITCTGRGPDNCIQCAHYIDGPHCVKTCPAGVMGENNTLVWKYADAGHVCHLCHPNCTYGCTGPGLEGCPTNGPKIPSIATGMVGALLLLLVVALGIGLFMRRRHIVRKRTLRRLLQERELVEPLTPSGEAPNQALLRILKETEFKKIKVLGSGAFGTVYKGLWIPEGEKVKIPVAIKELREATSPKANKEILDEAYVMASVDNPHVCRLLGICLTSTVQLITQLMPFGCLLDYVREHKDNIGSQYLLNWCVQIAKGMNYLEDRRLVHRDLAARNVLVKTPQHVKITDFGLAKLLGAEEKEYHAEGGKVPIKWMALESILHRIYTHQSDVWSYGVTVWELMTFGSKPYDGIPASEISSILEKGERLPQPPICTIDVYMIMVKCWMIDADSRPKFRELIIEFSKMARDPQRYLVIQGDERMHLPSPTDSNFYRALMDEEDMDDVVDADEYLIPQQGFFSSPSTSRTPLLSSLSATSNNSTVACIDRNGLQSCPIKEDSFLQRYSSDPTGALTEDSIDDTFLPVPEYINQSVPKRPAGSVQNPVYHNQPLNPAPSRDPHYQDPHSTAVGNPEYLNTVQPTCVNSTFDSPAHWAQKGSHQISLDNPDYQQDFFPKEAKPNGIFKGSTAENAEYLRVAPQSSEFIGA
Nature of the test: Kinase inhibition assay (33P transfer), EGFR. To be noted: Table 2, kinase inhibition class; read-out: EGFR-1. In a few lines:
as §2

Another test deals with T10, c-Met (Homo sapiens, UniProt P08581).
T10 construct: Kinases are expressed as either kinase domains or full length constructs; made in house
T10 sequence (P08581 25-1390): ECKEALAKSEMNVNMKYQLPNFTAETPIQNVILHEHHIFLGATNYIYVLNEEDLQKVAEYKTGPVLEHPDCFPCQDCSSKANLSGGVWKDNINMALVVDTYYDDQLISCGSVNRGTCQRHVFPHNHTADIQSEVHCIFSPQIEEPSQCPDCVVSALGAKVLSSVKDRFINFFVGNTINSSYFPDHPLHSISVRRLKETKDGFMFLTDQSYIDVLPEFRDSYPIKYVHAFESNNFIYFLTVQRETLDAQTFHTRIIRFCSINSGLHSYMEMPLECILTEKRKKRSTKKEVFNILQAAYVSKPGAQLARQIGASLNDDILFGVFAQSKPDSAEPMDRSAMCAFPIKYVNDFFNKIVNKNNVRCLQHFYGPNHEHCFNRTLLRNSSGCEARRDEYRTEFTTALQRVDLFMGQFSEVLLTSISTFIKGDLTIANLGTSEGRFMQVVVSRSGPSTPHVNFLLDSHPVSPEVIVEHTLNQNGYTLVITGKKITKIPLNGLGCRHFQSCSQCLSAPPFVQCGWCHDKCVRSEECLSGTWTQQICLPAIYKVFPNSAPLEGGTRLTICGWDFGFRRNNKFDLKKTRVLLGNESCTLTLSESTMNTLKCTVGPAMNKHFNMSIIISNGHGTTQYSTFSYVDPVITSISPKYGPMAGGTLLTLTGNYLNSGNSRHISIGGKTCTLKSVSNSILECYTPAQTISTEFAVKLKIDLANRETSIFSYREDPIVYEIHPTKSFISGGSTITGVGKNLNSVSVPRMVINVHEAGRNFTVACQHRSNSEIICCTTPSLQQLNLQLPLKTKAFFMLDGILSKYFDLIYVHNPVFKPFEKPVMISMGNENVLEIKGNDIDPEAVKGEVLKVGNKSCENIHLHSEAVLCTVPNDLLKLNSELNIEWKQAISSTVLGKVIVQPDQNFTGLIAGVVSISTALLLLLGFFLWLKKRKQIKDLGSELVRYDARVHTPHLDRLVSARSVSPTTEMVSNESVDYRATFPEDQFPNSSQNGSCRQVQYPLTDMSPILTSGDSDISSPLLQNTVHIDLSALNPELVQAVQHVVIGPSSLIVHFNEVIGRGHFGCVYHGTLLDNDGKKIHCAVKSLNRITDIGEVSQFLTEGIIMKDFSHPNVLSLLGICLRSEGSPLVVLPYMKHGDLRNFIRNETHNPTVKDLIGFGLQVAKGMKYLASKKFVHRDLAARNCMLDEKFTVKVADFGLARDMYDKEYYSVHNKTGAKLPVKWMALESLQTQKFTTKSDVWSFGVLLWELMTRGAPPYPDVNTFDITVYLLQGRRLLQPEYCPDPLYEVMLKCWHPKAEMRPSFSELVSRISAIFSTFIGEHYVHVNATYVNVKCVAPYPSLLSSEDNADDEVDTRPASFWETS
Description: Kinase inhibition assay (33P transfer), c-Met. To be noted: Table 2, kinase inhibition class; read-out: Met-1. The method in brief: as §2

Bounds are passed on as bounds.

On to `COC(=O)c1ccc(-c2cc(Nc3ncnc(Nc4ccc(CO)cc4)n3)[nH]n2)cc1` [Compound 989], for which the IC50 on Zap-70 is over 10.8 µM; at Itk, 8.38 to 10.8 µM; against IGFR-1 it was 8.38 to 10.8 µM; on ErbB2 it was over 10.8 µM; at Lck, over 10.8 µM; on PDGFRB it was over 10.8 µM. For the same compound, the IC50 on Kdr is 8.38 to 10.8 µM; at AKT, over 10.8 µM; at EGFR, 0.958 to 5.75 µM; on c-Met it was 8.38 to 10.8 µM.

Consider `COc1cc(Nc2ncnc(-n3c(NCc4nccs4)nc4ccccc43)n2)cc(OC)c1OC` [Compound 549], for which the IC50 on Zap-70 is over 9.17 µM; on Itk, over 9.17 µM; on IGFR-1, over 9.17 µM; at ErbB2 it was 0.815 to 4.89 µM; at Lck, 0.815 to 4.89 µM; on PDGFRB, under 0.815 µM. The IC50 was under 0.815 µM on Kdr, over 9.17 µM at AKT, 4.89 to 7.13 µM at EGFR and over 9.17 µM on c-Met.

As for `COc1ccc(CNc2nc3ccccc3n2-c2ncnc(Nc3cccc(Cc4nnn[nH]4)c3)n2)cc1` [Compound 959], the IC50 on Zap-70 lay in the range of 0.791 to 4.75 µM; on Itk, 0.791 to 4.75 µM; against IGFR-1, 0.791 to 4.75 µM; on ErbB2, 4.75 to 6.92 µM; on Lck it was 0.791 to 4.75 µM; on PDGFRB it was 0.791 to 4.75 µM. The IC50 on Kdr was under 0.791 µM; on AKT, 0.791 to 4.75 µM; at EGFR, 0.791 to 4.75 µM; at c-Met, 0.791 to 4.75 µM.

Consider `Nc1nc2ccccc2n1-c1ncnc(Nc2cccc(CC(=O)NCc3ccccn3)c2)n1` [Compound 956], for which the IC50 was over 9.97 µM at Zap-70; 0.886 to 5.32 µM at Itk; under 0.886 µM against IGFR-1; over 9.97 µM at ErbB2; 5.32 to 7.75 µM on Lck; 5.32 to 7.75 µM at PDGFRB. Also, the IC50 on Kdr was under 0.886 µM; on AKT, over 9.97 µM; at EGFR, over 9.97 µM; at c-Met it was 7.75 to 9.97 µM.

As to `COc1ccc(Nc2ncnc(NCc3c(C)cccc3Cl)n2)cc1OC` [Compound 791], the IC50 is over 11.7 µM at Zap-70; over 11.7 µM on Itk; over 11.7 µM on IGFR-1; 6.22 to 9.07 µM on ErbB2; over 11.7 µM at Lck; over 11.7 µM on PDGFRB. Besides, the IC50 on Kdr, at AKT, on EGFR and at c-Met was over 11.7 µM in each case.

For `C=CCNC(=O)c1ccc(-c2cc(Nc3ncnc(Nc4cc(OC)c(OC)c(OC)c4)n3)[nH]n2)cc1` [Compound 1005], the IC50 at Zap-70 was over 8.95 µM; on Itk, over 8.95 µM; on IGFR-1 it was 0.796 to 4.78 µM; at ErbB2, over 8.95 µM; on Lck, 6.96 to 8.95 µM; at PDGFRB, over 8.95 µM. The IC50 at Kdr was over 8.95 µM; on AKT it was over 8.95 µM; on EGFR it was over 8.95 µM; on c-Met, 4.78 to 6.96 µM.

As to `c1ccc(CNc2nc3ccccc3n2-c2ncnc(Nc3cccc(Cc4nnn[nH]4)c3)n2)cc1` [Compound 957], the IC50 on Zap-70 is 5.05 to 7.36 µM; at Itk, 0.841 to 5.05 µM; against IGFR-1 it was 0.841 to 5.05 µM; at ErbB2 it was under 0.841 µM; at Lck it was 0.841 to 5.05 µM; on PDGFRB it was under 0.841 µM. In addition, the IC50 at Kdr is under 0.841 µM; at AKT, 0.841 to 5.05 µM; at EGFR it was under 0.841 µM; on c-Met it was 0.841 to 5.05 µM.

`CN(c1cccc(Cl)c1)c1ncnc(NCCN2CCCCC2)n1` [Compound 740]: the IC50 on Zap-70, at Itk, at IGFR-1, at ErbB2, on Lck and at PDGFRB was over 13 µM each time. The IC50 was over 13 µM at Kdr, over 13 µM at AKT, 6.92 to 10.1 µM at EGFR and over 13 µM at c-Met.
